System: 628569-122-R-J1-PDC complex spheroid viability
Assay: Anticancer human tumor 628569-122-R-J1-PDC patient-derived head and neck squamous carcinoma cell line growth inhibition [CLK]
Conditions: for IC50: curve of first compound; for viability, T/C: stronger effect = lower value
Description: A high-throughput screen of multi-cell type tumor spheroids was designed to identify active combinations of […] and targeted small molecules. Complex spheroids include a stromal component modeled by human endothelial cells (HUVEC) and fibroblasts modeled by human mesenchymal stem cells (MSCs). The concentration ranges selected for each drug and investigational agent were based upon clinically achievable concentrations if the clinical Cmax of the agent was known.
Compounds. The drugs and investigational agents: cirtuvivint (SM08502; NSC835563), CC-671 (NSC850746), vemurafenib (NSC761431), tapotoclax (NSC804041), sotorasib (NSC818433), adagrasib (NSC831453), MRTX-1133 (NSC836407), BAY2416964 (NSC825713), copanlisib (NSC816437), inavolisib (NSC800729), abemaciclib (NSC768073), osimertinib (NSC779217), entinostat (NSC756642), eltanexor (KPT-8602, NSC794443), venetoclax (NSC766270), ceralasertib (NSC777638), bortezomib (NSC756655), olaparib (NSC753686), talazoparib (NSC767125), alisertib (NSC759677), peposertib (NSC802822), gemcitabine (NSC613327), 5-fluorouracil (NSC19893), SN-38 (NSC673596), oxaliplatin (NSC266046), paclitaxel (NSC125973), and doxorubicin (NSC123127), were obtained from the National Cancer Institute (NCI) Developmental Therapeutics Program Chemical Repository. The FDA-approved anticancer drug set is available from the Developmental Therapeutics Program at https://dtp.cancer.gov/organization/dscb/obtaining/available plates.htm. […] The stock solutions were prepared in dimethyl sulfoxide (DMSO, Sigma-Aldrich, St. Louis, MO, cat. D2650), except for the platinum complexes which were prepared in saline (Quality Biological, Gaithersburg, MD, cat. 114-055-101), at 800-fold the tested concentration and stored at -70 degrees C prior to their use. All drugs and investigational agents were tested over a range starting from a high concentration at or near the clinical Cmax and decreasing in half-log increments. If the clinical Cmax for an agent had not been determined, the highest concentration tested was 10 microM.
Cell Culture. All cells were maintained in an incubator at 37 degrees C and 5% CO2 with 95% humidity. The PDC lines were cultured according to standard operating procedures established by the NCI PDMR. Briefly, all PDCs were thawed and cultured in Matrigel-coated flasks prepared with a working solution of 1X Ham's F-12 nutrient mix, without supplementation (Invitrogen, Waltham, MA, cat. 11765054), 100 U/mL penicillin-streptomycin (Invitrogen, cat. 15140122), and 2.5% Matrigel (Corning Inc., Corning, NY, cat. 354248) for the first three passages. The 947758-054-R-J2-PDC line was cultured in 6B/Colon 1A media, which includes advanced DMEM/F-12 (Thermo Fisher Scientific, cat. 12634028), 10 mM HEPES (Thermo Fisher Scientific, cat. 15630080), 1X GlutaMAX supplement (Thermo Fisher Scientific, cat. 35050061), 0.1 mg/mL primocin (InvivoGen, cat. ant-pm-2), 10% defined fetal bovine serum, heat inactivated (HyClone Laboratories Inc., cat. SH30070.03HI), 1.25 mM N-Acetyl-L-cysteine (Sigma-Aldrich, cat. A9165), 10 mM nicotinamide (Sigma-Aldrich, cat. N0636), 1X B-27 supplement (Thermo Fisher Scientific, cat. 17504044), 1X N-2 supplement (Thermo Fisher Scientific, cat. 17502048), and 10 microM Y-27632 dihydrochloride (Tocris Bioscience, cat. 1254). The 876862-298-R-J1-PDC was cultured in 6E media, which includes all 6B/Colon 1A media components plus 50% L-WRN conditioned media (ATCC, cat. CRL-3276), 50 ng/mL recombinant human EGF recombinant protein (hEGF; Thermo Fisher Scientific, cat. PHG0311), 10 ng/mL recombinant human fibroblast growth factor 10 (hGFG-10; PeproTech, cat. 100-26), 1 ng/mL recombinant human fibroblast growth factor 2 (hFGF-2; PeproTech, cat. 100-18B), and 1 µM prostaglandin E2 (PGE2; Tocris, cat. 2296). The 227483-062-R1-J1-PDC line was cultured in Panc media, containing all 6E components except hFGF-2, with the addition of 500 nM SB-431542 (Selleckchem, cat. S1067) and 10 nM gastrin (Tocris, cat. 3006). […]
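Also: spheroids exposed to agents for seven days before readout.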
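For viability, T/C in this document: 100% = DMSO vehicle control viability.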

What does the source list for `COc1ccc([C@@H](O)c2cc(-c3ncnc4cc(N5CCOCC5)ccc34)c(F)cc2Cl)nn1` + CNC(=O)c1ccc(Nc2nc(OC3CCCC3)c3c(-c4ccc5nc(C)oc5c4)c[nH]c3n2)c(OC)c1?
IC50 (second compound 0.0316 µM): 2010 nM; IC50 (second compound 0.1 µM): 260 nM; IC50 (second compound 0.316 µM): < 31.6 nM; IC50 (second compound 1 µM): < 31.6 nM; IC50 (second compound 3.16 µM): < 31.6 nM; IC50 (second compound 10 µM): < 31.6 nM; viability, T/C (second compound 0.0316 µM, first compound 0.0316 µM): 83.7%; viability, T/C (second compound 0.0316 µM, first compound 0.1 µM): 80.5%; viability, T/C (second compound 0.0316 µM, first compound 0.316 µM): 78.1%; viability, T/C (second compound 0.0316 µM, first compound 1 µM): 61.8%; viability, T/C (second compound 0.0316 µM, first compound 3.16 µM): 42.3%; viability, T/C (second compound 0.0316 µM, first compound 10 µM): 35%; viability, T/C (second compound 0.1 µM, first compound 0.0316 µM): 54.5%; viability, T/C (second compound 0.1 µM, first compound 0.1 µM): 47.7%; viability, T/C (second compound 0.1 µM, first compound 0.316 µM): 49.6%; viability, T/C (second compound 0.1 µM, first compound 1 µM): 48.4%; viability, T/C (second compound 0.1 µM, first compound 3.16 µM): 41.9%; viability, T/C (second compound 0.1 µM, first compound 10 µM): 33.8%; viability, T/C (second compound 0.316 µM, first compound 0.0316 µM): 47.5%; viability, T/C (second compound 0.316 µM, first compound 0.1 µM): 41.4%; viability, T/C (second compound 0.316 µM, first compound 0.316 µM): 41.7%; viability, T/C (second compound 0.316 µM, first compound 1 µM): 39%; viability, T/C (second compound 0.316 µM, first compound 3.16 µM): 39.4%; viability, T/C (second compound 0.316 µM, first compound 10 µM): 29.7%; viability, T/C (second compound 1 µM, first compound 0.0316 µM): 46.8%; viability, T/C (second compound 1 µM, first compound 0.1 µM): 42.9%; viability, T/C (second compound 1 µM, first compound 0.316 µM): 41.7%; viability, T/C (second compound 1 µM, first compound 1 µM): 29.6%; viability, T/C (second compound 1 µM, first compound 3.16 µM): 36.4%; viability, T/C (second compound 1 µM, first compound 10 µM): 31.4%; viability, T/C (second compound 3.16 µM, first compound 0.0316 µM): 33.2%; viability, T/C (second compound 3.16 µM, first compound 0.1 µM): 39.5%; viability, T/C (second compound 3.16 µM, first compound 0.316 µM): 34.4%; viability, T/C (second compound 3.16 µM, first compound 1 µM): 37.4%; viability, T/C (second compound 3.16 µM, first compound 3.16 µM): 38.4%; viability, T/C (second compound 3.16 µM, first compound 10 µM): 21%; viability, T/C (second compound 10 µM, first compound 0.0316 µM): 45.1%; viability, T/C (second compound 10 µM, first compound 0.1 µM): 41.7%; viability, T/C (second compound 10 µM, first compound 0.316 µM): 32.2%; viability, T/C (second compound 10 µM, first compound 1 µM): 36.1%; viability, T/C (second compound 10 µM, first compound 3.16 µM): 27.8%; viability, T/C (second compound 10 µM, first compound 10 µM): 18.9%

Source: PubChem BioAssay AID2060611 (Molecular Pharmacology Branch, DTP, NCI, 2025)
